Test system: Escherichia coli
Experiment: MIC (Minimum Inhibitory Concentration) test, bacterial growth inhibition in synthetic urine (Bioscreen optical density)
Format: cell-based
Settings: mixed 1+3 with synthetic urine
Description: Experimental tests were conducted in order to verify the above-discussed results. In the experiments, solutions were prepared and sterilized by radiation (E-beam) or heat (autoclave). […] Further, some of the solutions were buffered to a predetermined pH-value with a citrate buffer (a buffer-system consisting of sodium citrates). All solutions were mixed with three volumetric parts synthetic urine in the experiments. Synthetic urine supports bacterial growth and were used as growth medium as well as negative control reference in the experiments. All experiments were made on the bacteria Escherichia coli, since the E. coli bacteria is normally the most relevant bacteria to inhibit for urinary catheter products. MIC (Minimum Inhibitory Concentration) tests were performed to assess the potential of a given substance and concentration to inhibit bacterial growth. The solutions were added to a growth solution containing a specified number of bacteria. The bacteria were then grown in microtiter-wells at 37 deg. C. in a Bioscreen-instrument for a period of at least 40 hours. The bacterial growth/inhibition was monitored in terms of optical density for the solution. Since all microorganisms increase the optical density of a solution during growth and multiplication, the Bioscreen measure of the transmittance/absorbance of light through the sample is correlated to the concentration of microorganisms. The results of the measurements of the different solutions are compared to a negative control reference, i.e. to synthetic urine, for each set of experiments.

[1] = 0.1% w/w, 850 mOsm, pH 6.5, no buffer
[2] = 0.3% w/w, 850 mOsm, pH 6.5, no buffer
[3] = 1.0% w/w, 850 mOsm, pH 6.5, no buffer

SMILES	Result (index): inhibition time relative to synthetic urine (0.05% w/w, 860 mOsm, pH 5.6, citrate buffer) [index]	Result (index): inhibition time relative to synthetic urine (0.05% w/w, 860 mOsm, pH 5.9, citrate buffer) [index]	Result (index): inhibition time relative to synthetic urine (0.05% w/w, 860 mOsm, pH 6.5, no buffer) [index]	Result (index): inhibition time relative to synthetic urine (0.05% w/w, 870 mOsm, pH 5.0, citrate buffer) [index]	Result (index): inhibition time relative to synthetic urine [1] [index]	Result (index): inhibition time relative to synthetic urine [2] [index]	Result (index): inhibition time relative to synthetic urine [3] [index]	Result (index): inhibition time relative to synthetic urine (0.25% w/w, 860 mOsm, pH 5.0, citrate buffer) [index]	Result (index): inhibition time relative to synthetic urine (0.25% w/w, 860 mOsm, pH 5.6, citrate buffer) [index]	Result (index): inhibition time relative to synthetic urine (0.25% w/w, 860 mOsm, pH 5.9, citrate buffer) [index]	Result (index): inhibition time relative to synthetic urine (0.25% w/w, 860 mOsm, pH 6.5, no buffer) [index]	Result (index): inhibition time relative to synthetic urine (0.9% w/w, 900 mOsm, pH 6.5, no buffer) [index]	Result (index): inhibition time relative to synthetic urine (3.0% w/w, 1700 mOsm, pH 6.5, no buffer) [index]
C/C=C/C=C/C(=O)[O-].[K+] [KS, Potassium Sorbate]	1.8	1.7	1.2	>8.0	3.8	5.0	5.3						
O=C([O-])c1ccccc1.[Na+] [NaB, Sodium Benzoate]					2.3	4.0	5.3	>8.0	>8.0	>8.0	4.0		
[Cl-].[Na+] [NaCl, sodium chloride, reference compound]												1.0	1.5
